This assay concerns BDF1 mice, P388 leukemia ip, median survival T/C. In words: NCI In Vivo Anticancer Drug Screen. Data for tumor model P388 Leukemia (intraperitoneal) in B6D2F1 (BDF1) mice. The note with it: endpoint: median survival time, higher = longer survival. A digest of the protocol: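 Reported as T/C, where T is the survival measurement in dosed animals and C the same measurement in vehicle controls.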

Where [1] appears, read: dose: 100.0 mg/kg/injection, schedule: Q01DX009 (ip), vehicle: Klucel (hydroxypropylcellulose) (HPC).
Setting [2] is: dose: 200.0 mg/kg/injection, schedule: Q01DX009 (ip), vehicle: Klucel (hydroxypropylcellulose) (HPC).
Setting [3] is: dose: 25.0 mg/kg/injection, schedule: Q01DX009 (ip), vehicle: saline with Tween-80.
[4] abbreviates: dose: 50.0 mg/kg/injection, schedule: Q01DX009 (ip), vehicle: saline with Tween-80.
Where [5] appears, read: dose: 100.0 mg/kg/injection, schedule: Q01DX009 (ip), vehicle: saline with Tween-80.
Where [6] appears, read: dose: 100.0 mg/kg/injection, schedule: Q01DX009 (ip), vehicle: saline.
[7] abbreviates: dose: 200.0 mg/kg/injection, schedule: Q01DX009 (ip), vehicle: saline.
[8] abbreviates: dose: 100.0 mg/kg/injection, schedule: Q04DX003 (ip), vehicle: saline.
The mark [9] stands for this setting: dose: 200.0 mg/kg/injection, schedule: Q04DX003 (ip), vehicle: saline.
The mark [10] stands for this setting: dose: 400.0 mg/kg/injection, schedule: Q04DX003 (ip), vehicle: saline.

Where “and” joins values, the source holds several entries; their conditions need not be identical. Equal entries are not always repeated. Toxic doses and inconclusive results are not listed.

Regarding `C=C(NC(=O)C(=C)NC(=O)c1csc(C2=NC3c4csc(n4)C4NC(=O)c5csc(n5)C(C(C)(O)C(C)O)NC(=O)C5CSC(=N5)/C(=C/C)NC(=O)C(C(C)O)NC(=O)c5csc(n5)C3(CC2)NC(=O)C(C)NC(=O)C(=C)NC(=O)C(C)NC(=O)C(C(C)CC)NC2C=Cc3c(C(C)O)cc(nc3C2O)C(=O)OC4C)n1)C(N)=O` (centres undefined), the T/C is, setting by setting: (dose: 18.75 mg/kg/injection, schedule: Q01DX009 (ip), vehicle: Klucel (hydroxypropylcellulose) (HPC)) 112 % of control; (dose: 37.5 mg/kg/injection, schedule: Q01DX009 (ip), vehicle: Klucel (hydroxypropylcellulose) (HPC)) 114 % of control; (dose: 50.0 mg/kg/injection, schedule: Q01DX009 (ip), vehicle: Klucel (hydroxypropylcellulose) (HPC)) 158 % of control; (dose: 75.0 mg/kg/injection, schedule: Q01DX009 (ip), vehicle: Klucel (hydroxypropylcellulose) (HPC)) 114 % of control; under setting [1], 155 % of control and 163 % of control; under setting [2], 156 % of control and 165 % of control and 182 % of control. The T/C (dose: 300.0 mg/kg/injection, schedule: Q01DX009 (ip), vehicle: Klucel (hydroxypropylcellulose) (HPC)) is 114 % of control.

Take `CN(C)C1C(=O)C(C(N)=O)=C(O)C2(O)C(=O)C3=C(O)c4c(O)cccc4C(C)(O)C3C(O)C12` (centres undefined): the T/C was 100 % of control (dose: 50.0 mg/kg/injection, schedule: Q01DX010 (oral), vehicle: water); 109 % of control (dose: 100.0 mg/kg/injection, schedule: Q01DX010 (oral), vehicle: water); 100 % of control (dose: 200.0 mg/kg/injection, schedule: Q01DX010 (oral), vehicle: water).

As to `CCCCC(C)(CN(C)C)C(=O)/C=C/c1ccc(Cl)c(Cl)c1` (centres undefined), the T/C was 112 % of control (dose: 6.25 mg/kg/injection, schedule: Q01DX009 (ip), vehicle: saline); 120 % of control (dose: 12.5 mg/kg/injection, schedule: Q01DX009 (ip), vehicle: saline); 118 % of control (dose: 25.0 mg/kg/injection, schedule: Q01DX009 (ip), vehicle: saline).

In the case of `Cc1ccc(N=Cc2ccccc2)cc1`, the T/C was 95 % of control under setting [1]; 100 % of control (dose: 100.0 mg/kg/injection, schedule: Q04DX003 (ip), vehicle: Klucel (hydroxypropylcellulose) (HPC)); 100 % of control under setting [2]; 108 % of control (dose: 200.0 mg/kg/injection, schedule: Q04DX003 (ip), vehicle: Klucel (hydroxypropylcellulose) (HPC)); 90 % of control (dose: 400.0 mg/kg/injection, schedule: Q01DX009 (ip), vehicle: Klucel (hydroxypropylcellulose) (HPC)); 108 % of control (dose: 400.0 mg/kg/injection, schedule: Q04DX003 (ip), vehicle: Klucel (hydroxypropylcellulose) (HPC)).

Take `CCCCN(C)N=Nc1c(C(N)=O)n[nH]c1C`: the T/C (dose: 22.0 mg/kg/injection, schedule: Q01DX009 (ip), vehicle: saline with Tween-80) is 122 % of control; the T/C under setting [3] is 120 % of control; the T/C under setting [4] is 154 % of control; the T/C (dose: 88.0 mg/kg/injection, schedule: Q04DX003 (ip), vehicle: Klucel (hydroxypropylcellulose) (HPC)) was 109 % of control.

For the molecule `CCCCCCCCCCCCCCCCCCNC(=O)Nc1ccc(C)cc1C`, the T/C is 91 % of control (dose: 100.0 mg/kg/injection, schedule: Q04DX003 (ip), vehicle: saline + alcohol); 108 % of control (dose: 200.0 mg/kg/injection, schedule: Q04DX003 (ip), vehicle: saline + alcohol); 108 % of control (dose: 400.0 mg/kg/injection, schedule: Q04DX003 (ip), vehicle: saline + alcohol).

As to `CCCCN(C)C(=S)S[Te](SC(=S)N(C)CCCC)(SC(=S)N(C)CCCC)SC(=S)N(C)CCCC`, the T/C reads like this: (dose: 45.0 mg/kg/injection, schedule: Q01DX010 (ip), vehicle: carboxymethylcellulose (CMC)) 100 % of control; (dose: 90.0 mg/kg/injection, schedule: Q01DX010 (ip), vehicle: carboxymethylcellulose (CMC)) 105 % of control; (dose: 180.0 mg/kg/injection, schedule: Q01DX010 (ip), vehicle: carboxymethylcellulose (CMC)) 115 % of control; (dose: 360.0 mg/kg/injection, schedule: Q01DX010 (ip), vehicle: carboxymethylcellulose (CMC)) 110 % of control.

Consider `CN(C)CCOc1cccc(OCCN(C)C)n1`, for which the T/C runs as follows: under setting [3], 100 % of control; (dose: 25.0 mg/kg/injection, schedule: Q04DX003 (ip), vehicle: saline with Tween-80) 87 % of control; under setting [4], 95 % of control; (dose: 50.0 mg/kg/injection, schedule: Q04DX003 (ip), vehicle: saline with Tween-80) 91 % of control.

With `CC(C)(C)OC(=O)NN=C1CCC(C(C)(C)C)CC1` (centres undefined), the T/C by setting is: (dose: 83.75 mg/kg/injection, schedule: Q01DX001 (ip), vehicle: Klucel (hydroxypropylcellulose) (HPC)) 95 % of control; under setting [5], 109 % of control; (dose: 150.0 mg/kg/injection, schedule: Q04DX003 (ip), vehicle: Klucel (hydroxypropylcellulose) (HPC)) 100 % of control; (dose: 167.5 mg/kg/injection, schedule: Q01DX001 (ip), vehicle: Klucel (hydroxypropylcellulose) (HPC)) 100 % of control; (dose: 225.0 mg/kg/injection, schedule: Q04DX003 (ip), vehicle: Klucel (hydroxypropylcellulose) (HPC)) 100 % of control; (dose: 335.0 mg/kg/injection, schedule: Q01DX001 (ip), vehicle: Klucel (hydroxypropylcellulose) (HPC)) 95 % of control. Moreover, under “dose: 335.0 mg/kg/injection, schedule: Q04DX003 (ip), vehicle: Klucel (hydroxypropylcellulose) (HPC)”, the T/C was 90 % of control.

Turning to `CC[N+]1(CC)CC[N+]2(CC1)CC[N+]1(CC[N+](CC)(CC)CC1)CC2`, the T/C reads like this: (dose: 50.0 mg/kg/injection, schedule: Q01DX009 (ip), vehicle: saline) 101 % of control; under setting [6], 101 % of control; under setting [7], 106 % of control.

As for `COC(=O)c1cc(=O)nc(N/N=C/c2ccc(OC)cc2)s1`, the T/C reads like this: (dose: 50.0 mg/kg/injection, schedule: Q01DX005 (ip), vehicle: saline with Tween-80) 102 % of control; (dose: 100.0 mg/kg/injection, schedule: Q01DX005 (ip), vehicle: saline with Tween-80) 102 % of control; (dose: 200.0 mg/kg/injection, schedule: Q01DX005 (ip), vehicle: saline with Tween-80) 102 % of control.

`COc1ccccc1N1CCN(CC(O)COc2ccccc2C(C)=O)CC1` (centres undefined): the T/C under setting [3] was 95 % of control, the T/C under setting [4] was 91 % of control and the T/C under setting [5] is 112 % of control.

`CCCCCCC(C)[N+](C)(C)C` (centres undefined): the T/C runs as follows: (dose: 6.25 mg/kg/injection, schedule: Q04DX003 (ip), vehicle: saline) 116 % of control; (dose: 12.5 mg/kg/injection, schedule: Q04DX003 (ip), vehicle: saline) 100 % of control; (dose: 25.0 mg/kg/injection, schedule: Q04DX003 (ip), vehicle: saline) 113 % of control.

Turning to `CC(=O)OCC(OC(C)=O)c1cc(/C=N/N(C(C)=O)c2ccccc2)nn1-c1ccccc1` (centres undefined), the T/C is, setting by setting: under setting [3], 101 % of control; under setting [4], 98 % of control; under setting [5], 96 % of control.

Turning to `Cc1ccc(NC(=O)Oc2c(C)cc(Cl)cc2C)c([N+](=O)[O-])c1`, the T/C by setting is: under setting [3], 90 % of control; under setting [4], 101 % of control.

For `O=C1NC(=O)C(=O)N1`, the T/C (dose: 100.0 mg/kg/injection, schedule: Q01DX001 (ip), vehicle: saline) is 109 % of control; the T/C under setting [5] was 100 % of control; the T/C under setting [6] was 100 % of control; the T/C under setting [8] is 110 % of control; the T/C (dose: 200.0 mg/kg/injection, schedule: Q01DX001 (ip), vehicle: saline) is 100 % of control; the T/C (dose: 200.0 mg/kg/injection, schedule: Q01DX009 (ip), vehicle: saline with Tween-80) is 104 % of control. In addition, the T/C under setting [7] was 100 % of control; the T/C under setting [9] is 95 % of control; the T/C (dose: 400.0 mg/kg/injection, schedule: Q01DX001 (ip), vehicle: saline) was 100 % of control; the T/C (dose: 400.0 mg/kg/injection, schedule: Q01DX009 (ip), vehicle: saline with Tween-80) is 95 % of control; the T/C (dose: 400.0 mg/kg/injection, schedule: Q01DX009 (ip), vehicle: saline) was 100 % of control; the T/C under setting [10] is 120 % of control.

As for `CCOC(=O)C(C(=O)OCC)C(C)C`, the T/C is 105 % of control under setting [8], 105 % of control under setting [9] and 115 % of control under setting [10].

For `CC(C#N)(C#N)N=Nc1ccc(Cl)cc1Cl`, the T/C under setting [5] was 116 % of control.

The values above are taken from PubChem BioAssay AID328 (DTP/NCI, 2004).
